Experimental findings from US20230095912A1, “Composition and Methods for Selective Degradation of Engineered Proteins” (Celgene Corporation, priority 2021, published 2023) are described below.

For one assay, the target named is T1, ePL-tagged Aiolos (Homo sapiens, UniProt Q96SW2+Q9UKT9).
T1 construct: expressed in transfected cells
The assay can be described thus: ePL-tagged substrate degradation in DF15 multiple myeloma cells. The settings on record: for DC50: Aiolos, DF15 cells, 4 hours, read-out: EC50 (the source's name). The assay is classed as cell-based. On the procedure:
(§1) DF15 multiple myeloma cells stably expressing ePL-tagged Aiolos, Ikaros, or GSPT1, and MDS-L cells stably expressing ePL-tagged CK1a were generated via lentiviral infection with pLOC-ePL-Aiolos (or Ikaros, GSPT1, or CK1a). […] Compounds were dispensed by an acoustic dispenser (ATS acoustic transfer system from EDC Biosystems) into a 384-well plate in a 10-point dose response curve using 3-fold dilutions starting at 10 μM and going down to […]. Then, 25 μL of media (RPMI-1640+10% heat inactivated FBS+25 mM Hepes+1 mM Na pyruvate+1× NEAA+1×Pen Strep Glutamine) containing 5000 of DF15 or MSD-L cells was dispensed per well. Assay plates were incubated at 37° C. with 5% CO2 for 4 hours except 20 hours for GSPT1. After incubation, 25 μL of the InCELL Hunter detection reagent working solution (DiscoverX, catalogue no. 96-0002, Fremont, Calif.) was added to each well and incubated at room temperature for 60 min protected from light. After 60 min, luminescence was read on an Envision or PHERAstar luminescence reader.
(§2) All substrate degradation curves were processed and evaluated using ActivityBase (IDBS), a data analysis software package. Ymin is minimum percent protein remaining.

Assay [1] concerns the target T2, CD19 CARs tagged with IKZF1 ZNF2_ZNF3 Q1F (Homo sapiens, UniProt Q13422, Q146F).
T2 construct: EC50 (Q1F degron); other: Jurkat cells, 18 hours, CAR levels normalized to no drug; Ymin (Q1F degron); Ymin (%); minimum percent protein remaining; Nluc reporter
As to the kind of experiment: Small-molecule screen: Q1F degron-tagged CD19 CAR levels in Jurkat cells, flow cytometry. The assay is classed as cell-based. The note with it: for Ymin (%): minimum percent protein remaining. The method, then:
A set of potential degron-targeting compounds was screened against the Q1F degron, resulting in a set of potent degron/small-molecule pairs. Lentiviral vectors containing CD19 CARs tagged with IKZF1 ZNF2_ZNF3 Q1F Nluc were transduced into Jurkat cells. The CD19 CAR was similar to the CD19 CAR in Example 2, but comprising the ZNF2_ZNF3 Q1F degron (SEQ ID NO: 19). Transduced cells were treated with a titration of each small molecule or no drug and then incubated at 37° C. for 18 hours. Cells were washed and stained with appropriate staining reagent to measure CAR levels. The cells were incubated at 4° C. in the staining reagents for 20 mins and then washed 3 times before being read on the flow cytometer. CAR levels were normalized to cells that had not been treated with drug. EC50 and Ymin values were calculated using the resulting titration curve. This identified small molecules that potently degraded the Q1F degron-tagged CARs (Table 1).
(A flow cytometer gives signals particle by particle.)

Assay [2] relates to ZNF2_3 Q1F tagged CD19 CAR. As to the kind of experiment: Raji xenograft model, degron-tagged CAR T down-regulation in NSG mice. The assay is classed as in vivo. The note with it: 6.85 mg/kg BID orally on days 0 and 1, Raji tumor. The method, then: (§3) The ability to degrade ZNF2_3 Q1F tagged CAR in vivo was evaluated. A lentiviral vector encoding ZNF2_3 Q1F tagged CD19 CAR was transduced into activated primary T cells. Transduced cells were expanded for 10 days in media supplemented with IL2, IL7 and IL15, then frozen.
To examine the down-regulation of degron-tagged CAR in vivo in a xenograft cancer model and the impact on CAR T function, female NSG™ mice were injected with 5×10^5 of Raji tumor cells stably expressing renilla luciferase. Six days later CAR T cells were thawed, rested for 24 hours and adoptively transferred into the mice at a dose of 2×10^6 cells per animal. Mice were dosed orally with vehicle or 6.85 mg/kg Compound D BID on days 0 and 1 (FIG. 19A). Blood was drawn and tumor fluorescence measured at D1, D3, and D10 (FIG. 19A), and the proportion of CAR+T cells, as determined by staining with anti-scFv and anti-CD3 antibodies, was evaluated by flow.

A further assay concerns the target T3, ePL-tagged CK1a (Homo sapiens, UniProt P48729+Q96SW2).
T3 construct: expressed in transfected cells
The assay can be described thus: ePL-tagged substrate degradation in MDS-L cells. The assay is classed as cell-based. The settings on record: for DC50: CK1a, MDS-L cells, 4 hours, read-out: EC50 (the source's name). On the procedure: as §1
(§4) To determine the EC50 value of a compound for the degradation of a given substrate (concentration of compound that achieves half the maximum degradation observed), a four-parameter logistic model (sigmoidal dose—response model) (FIT=(A+{(B−A)/1+[(C/x)D]})) where C is the inflection point (EC50), D is the […], and A and B are the low and high limits of the fit, respectively) was used. All substrate degradation curves were processed and evaluated using ActivityBase (IDBS), a data analysis software package. Ymin is minimum percent protein remaining.

A further assay has as its target T4, Helios (Homo sapiens, UniProt Q96SW2+Q9UKS7).
T4 construct: endogenous in cells; host or cells: Jurkat/Helios/HiBit cells (CRISPR/Cas9 knock-in)
As to the kind of experiment: Helios HiBit degradation in Jurkat cells. It is filed as cell-based. The note with it: for DC50: Helios, Jurkat/Helios/HiBit cells, 18 hr, read-out: EC50 (the source's name). The method, then: For Helios, a stable Jurkat cell line was engineered using CRISPR/Cas9 to insert an in-frame HiBit tag into the carboxy-terminal reading frame of the IKZF2 gene. Test compounds were transferred to 1536 well plates using an acoustic dispenser, and Jurkat/Helios/HiBit cells in DMEM/10% FCS were plated at 10,000 cells/well in a final volume of 5 ul. Cells were incubated at 37C, 95% RH for 18 hr. Luciferase activity was measured by adding 2 ul/well of Nano-Glo reagent (Promega), incubating at RT for 30 min, and reading luminescence on a microtiter plate reader.
as §2
Background: With HiBiT, luminescence reflects the tagged protein that the partner subunit can reach.

Assay [3] concerns ZNF2_3 Q1F tagged CD19 CAR. As to the kind of experiment: In vivo degradation of degron-tagged CAR in non-tumor bearing NSG mice. On the procedure: as §3
To determine the ability to degrade degron-tagged CAR in vivo in the absence of tumor, CAR T cells were thawed, rested for 24 hours and adoptively transferred into non-tumor bearing female NSG™ immunodeficient mice at a dose of 2×10^6 cells per animal. After 24 hours, mice were dosed orally with vehicle, 0.85 or 8.5 mg/kg Compound D (FIG. 18B). Blood was drawn 8, 24, 48 and 72 hours later (FIG. 18A), and the proportion of CAR+ T cells, as determined by staining with anti-scFv and anti-CD3 antibodies, was evaluated by flow.

Assay [4] relates to CD19 CARs tagged with IKZF1 ZNF2_ZNF3 Q1F. The assay can be described thus: Small-molecule screen: Q1F degron-tagged CD19 CAR levels in Jurkat cells, flow cytometry. The note with it: versus Helios, Aiolos, Ikaros, GSPT1, CK1a. The assay is classed as cell-based, human.
The target in the next assay is T5, ePL-tagged GSPT1 (Homo sapiens, UniProt P15170+Q96SW2).
T5 construct: expressed in transfected cells
As to the kind of experiment: ePL-tagged substrate degradation in DF15 multiple myeloma cells. The assay is classed as cell-based. The settings on record: for DC50: GSPT1, DF15 cells, 20 hours, read-out: EC50 (the source's name). The method, then: as §1, §4

A further assay has as its target T6, ePL-tagged Ikaros (Homo sapiens, UniProt Q13422+Q96SW2).
T6 construct: expressed in transfected cells
The assay is described as above. The settings on record: for DC50: Ikaros, DF15 cells, 4 hours, read-out: EC50 (the source's name). It is filed as cell-based. The method, then:
as §1, §4

In a further assay the test system is IKZF1 ZNF2 Q1F. As to the kind of experiment: In vitro ubiquitination screen of Ikaros MBP-ZNF2 Q1 mutants. It is filed as biochemical, human. The note with it: western blot. The source says:
Structural studies reveal that position 1 of the G-motif is in close proximity to the compound when substrates are bound to cereblon/compound complexes (not shown). Alignment of the G-motif degron sequences of the IKZF family (FIG. 8) and predicted degrons within other C2H2 zinc fingers (FIG. 9) reveal a diverse set of amino acids at this position. Therefore, to identify additional compound:degron pairs, mutations were made in the Q1 position of IKZF1 ZNF2, and potential compounds were screened for activity against these mutants. Plasmids were built containing Ikaros MBP-ZNF2 (aa 141-196) with alternate amino acids at the Q1 position, and an in vitro ubiquitination screen was conducted using various compounds including Compound B (FIG. 10A).
Background: Immunoblotting shows a protein as a band on a membrane.

Assay [5] deals with IKZF1 ZNF2_3 Q1F tagged CD19 CAR. The assay can be described thus: Jurkat reporter assay (tdTomato), signaling of Q1F-tagged CAR after degradation. The assay is classed as cell-based, human. The settings on record: 1 mM pre-treatment 12 hours, co-culture with CD19-expressing K562 8 hours. On the procedure:
A lentiviral vector encoding ZNF2_3 Q1F or Q1F/G6N tagged CD19 CAR was transduced into the reporter cell line. […] Levels of tdTomato in the form of the overall percent of positive cells (FIG. 12A), as well as mean fluorescence intensity (MFI, FIG. 12B) were assessed by flow cytometry. Degradation of CARs containing the ZNF2_3 Q1F degron decreased signaling by around 30% using 1 mM Compound C and by around 75% using Compound B; this relative difference correlates with the depth of degradation seen for each. Further, the reduction in activity depends upon having an intact G-motif, as the G6N mutation prevents inhibition.

[6] abbreviates: Degron Q1F (from Table 1), read-out: EC50 (the source's name).
Where [7] appears, read: Jurkat assay described in Example 5, read-out: EC50 for the Q1F degron.
The mark [8] stands for this setting: Jurkat cells, 18 hours, CAR levels normalized to no drug.
[9] abbreviates: Jurkat cells, 18 hours, CAR levels normalized to no drug, read-out: EC50 (Q1F degron).

SMILES strings stand for the structures. Like-named read-outs stand apart in the source and are kept apart here.

T1 sequence (Q9UKT9 whole entry): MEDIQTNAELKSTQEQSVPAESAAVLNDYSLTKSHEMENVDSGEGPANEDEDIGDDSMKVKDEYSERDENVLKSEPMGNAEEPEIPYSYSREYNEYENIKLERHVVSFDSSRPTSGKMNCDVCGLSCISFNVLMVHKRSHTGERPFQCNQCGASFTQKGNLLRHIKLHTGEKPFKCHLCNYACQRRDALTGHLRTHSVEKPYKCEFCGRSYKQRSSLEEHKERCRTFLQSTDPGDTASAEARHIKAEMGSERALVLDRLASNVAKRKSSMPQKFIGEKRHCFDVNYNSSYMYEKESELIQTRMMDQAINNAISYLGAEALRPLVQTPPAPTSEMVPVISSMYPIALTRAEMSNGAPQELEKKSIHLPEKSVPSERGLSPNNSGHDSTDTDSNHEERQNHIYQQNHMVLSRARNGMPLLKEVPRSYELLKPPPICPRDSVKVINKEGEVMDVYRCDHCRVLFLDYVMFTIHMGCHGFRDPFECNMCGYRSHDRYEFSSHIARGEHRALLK
T1 sequence (Q96SW2 whole entry): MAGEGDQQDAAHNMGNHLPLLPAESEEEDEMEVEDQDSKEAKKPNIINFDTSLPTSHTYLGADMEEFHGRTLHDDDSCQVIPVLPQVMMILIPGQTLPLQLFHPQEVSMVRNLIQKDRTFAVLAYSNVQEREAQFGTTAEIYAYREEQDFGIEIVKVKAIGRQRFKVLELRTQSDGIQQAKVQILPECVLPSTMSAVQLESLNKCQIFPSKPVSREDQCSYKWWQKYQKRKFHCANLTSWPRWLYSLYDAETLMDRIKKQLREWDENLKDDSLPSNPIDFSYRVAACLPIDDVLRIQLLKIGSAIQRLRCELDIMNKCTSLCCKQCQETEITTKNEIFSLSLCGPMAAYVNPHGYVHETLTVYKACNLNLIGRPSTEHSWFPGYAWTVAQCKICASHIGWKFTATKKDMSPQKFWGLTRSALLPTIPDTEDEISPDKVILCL
T1 sequence (Q16531 whole entry partner): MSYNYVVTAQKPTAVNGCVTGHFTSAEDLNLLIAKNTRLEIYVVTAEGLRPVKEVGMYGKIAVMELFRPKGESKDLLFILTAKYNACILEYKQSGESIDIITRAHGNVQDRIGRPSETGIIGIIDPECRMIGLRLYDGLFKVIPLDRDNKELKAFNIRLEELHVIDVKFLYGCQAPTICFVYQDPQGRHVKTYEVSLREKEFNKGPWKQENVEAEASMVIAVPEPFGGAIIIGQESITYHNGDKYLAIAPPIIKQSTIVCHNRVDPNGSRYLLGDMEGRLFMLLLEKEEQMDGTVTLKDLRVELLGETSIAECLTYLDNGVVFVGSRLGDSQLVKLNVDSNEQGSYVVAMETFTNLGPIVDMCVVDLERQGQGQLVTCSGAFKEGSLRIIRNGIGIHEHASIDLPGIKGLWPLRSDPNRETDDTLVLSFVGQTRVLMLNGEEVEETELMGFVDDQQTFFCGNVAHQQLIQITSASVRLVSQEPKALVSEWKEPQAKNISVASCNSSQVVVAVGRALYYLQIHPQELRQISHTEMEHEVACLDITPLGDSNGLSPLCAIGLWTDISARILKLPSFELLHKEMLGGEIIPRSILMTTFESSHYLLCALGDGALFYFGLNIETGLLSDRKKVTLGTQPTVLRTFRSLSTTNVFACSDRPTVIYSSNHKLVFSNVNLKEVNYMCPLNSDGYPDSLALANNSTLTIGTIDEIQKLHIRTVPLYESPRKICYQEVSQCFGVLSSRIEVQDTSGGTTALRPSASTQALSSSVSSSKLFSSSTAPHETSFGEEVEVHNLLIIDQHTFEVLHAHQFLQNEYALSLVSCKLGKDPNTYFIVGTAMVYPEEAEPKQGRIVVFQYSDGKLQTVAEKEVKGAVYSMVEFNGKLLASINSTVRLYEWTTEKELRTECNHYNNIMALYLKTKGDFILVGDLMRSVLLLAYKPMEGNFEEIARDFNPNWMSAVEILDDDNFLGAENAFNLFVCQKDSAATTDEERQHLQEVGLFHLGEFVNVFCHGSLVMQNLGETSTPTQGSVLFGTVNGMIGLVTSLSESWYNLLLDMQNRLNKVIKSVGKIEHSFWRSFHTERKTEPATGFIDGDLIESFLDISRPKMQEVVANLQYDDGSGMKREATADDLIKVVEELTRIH
T5 sequence (P15170 whole entry): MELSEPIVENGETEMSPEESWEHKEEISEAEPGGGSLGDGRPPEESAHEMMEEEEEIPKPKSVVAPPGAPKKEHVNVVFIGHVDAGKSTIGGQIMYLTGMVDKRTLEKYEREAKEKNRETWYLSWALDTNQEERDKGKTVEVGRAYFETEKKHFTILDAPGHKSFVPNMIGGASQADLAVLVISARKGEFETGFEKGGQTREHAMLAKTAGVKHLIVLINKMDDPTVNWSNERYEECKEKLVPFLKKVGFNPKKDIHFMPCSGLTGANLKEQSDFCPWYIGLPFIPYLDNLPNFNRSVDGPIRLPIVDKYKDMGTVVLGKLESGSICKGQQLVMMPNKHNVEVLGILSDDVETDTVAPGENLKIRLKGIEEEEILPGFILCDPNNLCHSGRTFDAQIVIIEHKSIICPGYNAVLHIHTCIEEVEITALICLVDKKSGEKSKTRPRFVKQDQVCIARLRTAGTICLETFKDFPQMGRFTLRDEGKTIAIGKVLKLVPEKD
T5 sequence (Q96SW2 whole entry): as the sequence (Q96SW2 whole entry) above
T5 sequence (Q16531 whole entry partner): as the sequence (Q16531 whole entry partner) above
T4 sequence (Q9UKS7 whole entry): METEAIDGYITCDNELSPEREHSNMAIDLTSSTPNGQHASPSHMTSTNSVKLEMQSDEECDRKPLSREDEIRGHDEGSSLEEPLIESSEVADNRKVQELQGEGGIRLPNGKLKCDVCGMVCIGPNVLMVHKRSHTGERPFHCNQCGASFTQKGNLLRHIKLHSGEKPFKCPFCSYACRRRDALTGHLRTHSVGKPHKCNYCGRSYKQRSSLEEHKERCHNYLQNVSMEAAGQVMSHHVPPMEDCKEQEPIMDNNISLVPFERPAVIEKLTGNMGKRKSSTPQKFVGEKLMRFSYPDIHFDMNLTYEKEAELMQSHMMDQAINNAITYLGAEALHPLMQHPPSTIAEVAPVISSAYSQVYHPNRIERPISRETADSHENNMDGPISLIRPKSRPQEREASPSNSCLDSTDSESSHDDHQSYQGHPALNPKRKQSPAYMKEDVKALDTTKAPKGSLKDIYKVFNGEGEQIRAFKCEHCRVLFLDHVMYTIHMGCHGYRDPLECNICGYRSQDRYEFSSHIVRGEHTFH
T4 sequence (Q96SW2 whole entry): as the sequence (Q96SW2 whole entry) above
T4 sequence (Q16531 whole entry partner): as the sequence (Q16531 whole entry partner) above
T2 sequence (Q13422 whole entry Q146F): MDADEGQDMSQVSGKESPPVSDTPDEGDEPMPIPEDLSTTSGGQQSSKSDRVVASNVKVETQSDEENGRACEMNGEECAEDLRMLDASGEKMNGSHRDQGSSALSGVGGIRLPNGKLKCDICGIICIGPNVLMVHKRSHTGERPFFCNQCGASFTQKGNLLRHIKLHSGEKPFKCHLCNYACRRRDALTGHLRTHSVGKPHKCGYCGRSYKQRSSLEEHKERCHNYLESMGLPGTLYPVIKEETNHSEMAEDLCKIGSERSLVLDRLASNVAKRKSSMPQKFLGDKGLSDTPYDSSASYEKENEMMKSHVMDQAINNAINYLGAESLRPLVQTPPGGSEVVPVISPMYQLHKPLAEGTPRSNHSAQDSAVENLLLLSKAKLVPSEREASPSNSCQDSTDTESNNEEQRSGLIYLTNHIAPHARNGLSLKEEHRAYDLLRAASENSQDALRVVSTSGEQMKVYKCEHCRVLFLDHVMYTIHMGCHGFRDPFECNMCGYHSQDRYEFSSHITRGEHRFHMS
T6 sequence (Q13422 whole entry): as the sequence (Q13422 whole entry Q146F) above, with F146Q counted along it
T6 sequence (Q96SW2 whole entry): as the sequence (Q96SW2 whole entry) above
T6 sequence (Q16531 whole entry partner): as the sequence (Q16531 whole entry partner) above
T3 sequence (P48729 whole entry): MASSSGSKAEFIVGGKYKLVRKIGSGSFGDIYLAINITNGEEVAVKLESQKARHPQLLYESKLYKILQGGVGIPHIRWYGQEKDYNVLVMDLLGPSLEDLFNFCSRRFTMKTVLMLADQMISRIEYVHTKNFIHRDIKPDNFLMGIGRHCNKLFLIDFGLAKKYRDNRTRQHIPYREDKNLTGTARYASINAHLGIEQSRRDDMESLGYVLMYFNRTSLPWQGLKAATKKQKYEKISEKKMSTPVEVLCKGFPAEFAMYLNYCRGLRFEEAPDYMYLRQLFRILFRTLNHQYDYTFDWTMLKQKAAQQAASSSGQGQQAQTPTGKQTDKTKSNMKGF
T3 sequence (Q96SW2 whole entry): as the sequence (Q96SW2 whole entry) above
T3 sequence (Q16531 whole entry partner): as the sequence (Q16531 whole entry partner) above

Take `O=C1CCC(N2Cc3cc(C4CCN(Cc5ccc6ncsc6c5)CC4)ccc3C2=O)C(=O)N1` (stereo not shown) [Compound D, 3-[5-[1-(1,3-benzothiazol-6-ylmethyl)-4-piperidyl]-1-oxo-isoindolin-2-yl]piperidine-2,6-dione]: the “Ymin (%)” value was 87% on ePL-tagged Aiolos; 4.2% in [1] (Degron Q1F (from Table 1)); 81% on ePL-tagged CK1a; 24% at Helios; 96% on ePL-tagged GSPT1; 93% at ePL-tagged Ikaros. Moreover, the DC50 on ePL-tagged Aiolos is more than 10000 nM; in [1] (setting [6]), 0.7 nM; in [1] (setting [7]), less than 1 nM; in assay [1] (setting [9]), 0.7 nM; on ePL-tagged CK1a, more than 10000 nM; at Helios, 460 nM. Besides, the DC50 at ePL-tagged GSPT1 and on ePL-tagged Ikaros was more than 10000 nM in each case. The “Ymin (Q1F degron)” value in assay [1] (setting [8]) turned out to be 4.2%. Besides, in [2], the “expansion and cytolytic function of degron-tagged CAR T cells” value was “decreased expansion and cytolytic function”. The “degradation of Helios (in words)” value at Helios is “some degradation of Helios”. The “CD3+ CAR+ cells remaining” value in [3] (0.85 or 8.5 mg/kg orally (both doses), blood at 8 hours) is listed as less than 5%. In addition, the “CAR level in vivo” value in assay [3] (0.85 or 8.5 mg/kg orally, 24 hours) was “remained significantly degraded”. Further, the “CAR expression in vivo” value in assay [3] (48 hours after dosing) is reported as “substantially restored”. The “selectivity for the Q1F degron (in words)” value in assay [4] is “selective for the Q1F degron”.
With `O=C1CCC(N2Cc3cc(C(=O)N4Cc5cccnc5C4)ccc3C2=O)C(=O)N1` (stereo not shown) [Compound B, 3-(5-(6,7-dihydro-5H-pyrrolo[3,4-b]pyridine-6-carbonyl)-1-oxoisoindolin-2-yl)piperidine-2,6-dione], the “Ymin (%)” value was found to be 93% at ePL-tagged Aiolos; 1.7% in assay [1] (Degron Q1F (from Table 1)); 82% on ePL-tagged CK1a; 65% at Helios; 72% on ePL-tagged GSPT1; 91% on ePL-tagged Ikaros. Also, the DC50 is more than 10000 nM on ePL-tagged Aiolos; 4.8 nM in assay [1] (setting [6]); less than 5 nM in assay [1] (setting [7]); 4.8 nM in assay [1] (setting [9]); more than 10000 nM on ePL-tagged CK1a; more than 10000 nM on Helios. Further, the values for the DC50 on ePL-tagged GSPT1 and at ePL-tagged Ikaros were 54 nM and more than 10000 nM, respectively. The “Ymin (Q1F degron)” value in assay [1] (setting [8]) is recorded as 1.7%. The “degradation of Helios (in words)” value at Helios is “some degradation activity against Helios”. Moreover, the “degradation of GSPT1 (in words)” value at ePL-tagged GSPT1 is “some degradation activity against GSPT1”. Besides, in the assay on IKZF1 ZNF2 Q1F, the “ubiquitination of IKZF1 ZNF2 Q1F” value is “heavily ubiquitinated”. Besides, in assay [5], the “decrease of signaling (tdTomato reporter)” value is listed as “around 75%”.
